Each block holds one molecule with its values, some of them ahead of it.
Assays:
Trial 2 = assay type: in vivo, human
[1] = Trial 1: safety and tolerability, treatment-emergent adverse events; assay type: in vivo, human; conditions: after warfarin 25 mg, day 9, one subject, moderate severity, possibly related to warfarin
[2] = cited from earlier work
[3] = cited from earlier work; remark: listed apart in the source
[4] = trial 2, oral semaglutide 20 mg once daily

- AUC0–24h at steady state, range of geometric means (Trial 2; [4]): 0.622 to 0.719 µM·h
- Cmax at steady state, range of geometric means (Trial 2; [4]): 31.0 to 35.8 nM
- Mean AUC0–24h at steady state (Trial 1; trial 1, oral semaglutide 20 mg once daily, after last dose (day 84)): 0.76196 µM·h
- mean t½ (Trial 1; trial 1, oral semaglutide 20 mg once daily, steady state): 162 h
Molecule: CC[C@H](C)[C@H](NC(=O)[C@H](Cc1ccccc1)NC(=O)[C@H](CCC(=O)O)NC(=O)[C@H](CCCCNC(=O)COCCOCCNC(=O)COCCOCCNC(=O)CC[C@H](NC(=O)CCCCCCCCCCCCCCCCC(=O)O)C(=O)O)NC(=O)[C@H](C)NC(=O)[C@H](C)NC(=O)[C@H](CCC(N)=O)NC(=O)CNC(=O)[C@H](CCC(=O)O)NC(=O)[C@H](CC(C)C)NC(=O)[C@H](Cc1ccc(O)cc1)NC(=O)[C@H](CO)NC(=O)[C@H](CO)NC(=O)[C@@H](NC(=O)[C@H](CC(=O)O)NC(=O)[C@H](CO)NC(=O)[C@@H](NC(=O)[C@H](Cc1ccccc1)NC(=O)[C@@H](NC(=O)CNC(=O)[C@H](CCC(=O)O)NC(=O)C(C)(C)NC(=O)[C@@H](N)Cc1cnc[nH]1)[C@@H](C)O)[C@@H](C)O)C(C)C)C(=O)N[C@@H](C)C(=O)N[C@@H](Cc1c[nH]c2ccccc12)C(=O)N[C@@H](CC(C)C)C(=O)N[C@H](C(=O)N[C@@H](CCCNC(=N)N)C(=O)NCC(=O)N[C@@H](CCCNC(=N)N)C(=O)NCC(=O)O)C(C)C [semaglutide]

Molecule: CC(=O)CC(c1ccccc1)c1c(O)c2ccccc2oc1=O (stereo not drawn) [Warfarin, warfarin]
- INRmax of the subject with a bleeding event (epistaxis) [1]: 2.53
- absorption ([2]; oral): completely absorbed

- tmax (Trial 1; lisinopril 20 mg single dose alone, N = 52, median (minimum, maximum)): 6.0 h
Molecule: NCCCC[C@H](N[C@@H](CCc1ccccc1)C(=O)O)C(=O)N1CCC[C@H]1C(=O)O [Lisinopril, lisinopril]

- tmax in trial 2 (Trial 2; metformin steady state, morning dose fasting): 0.8 to 1.0 h
Molecule: CN(C)C(=N)N=C(N)N [Metformin, metformin]
- Increase in AUC on coadministration of multiple doses of dulaglutide ([3]; steady-state metformin): up to 15%
- tmax generally reported [2]: 2.5 h

- tmax (Trial 2; digoxin 500 μg single dose alone, N = 31, median (minimum, maximum)): 1.0 h
- mean t½ (Trial 2; digoxin single dose, alone and with oral semaglutide (both conditions)): 42 to 43 h
Molecule: C[C@H]1O[C@@H](O[C@H]2[C@@H](O)C[C@H](O[C@H]3[C@@H](O)C[C@H](O[C@H]4CC[C@@]5(C)[C@H](CC[C@@H]6[C@@H]5C[C@@H](O)[C@]5(C)[C@@H](C7=CC(=O)OC7)CC[C@]65O)C4)O[C@@H]3C)O[C@@H]2C)C[C@H](O)[C@@H]1O [Digoxin, digoxin]
- Reduction of Cmax on coadministration with liraglutide [3]: 27–38%
- AUC on coadministration with exenatide ([3]; digoxin PK): unchanged
- Decrease of Cmax on coadministration with exenatide ([3]; digoxin PK): 17%
- absorption (incomplete) ([2]; oral): ~ 70%
- half-life ([2]; used to set the length of the washout periods, no reference given): 30 to 50 h

Molecule: subcutaneous semaglutide: semaglutide as once-weekly subcutaneous injection
- mean t½ for subcutaneous semaglutide [2]: 156 to 160 h

Reference: publication PMC6719321 (Clinical Pharmacokinetics, 2019)
